Test results as given in US20250127844A1, “PEPTIDE HAVING HAIR LOSS PREVENTION OR HAIR GROWTH PROMOTION ACTIVITY AND USE THEREOF” (CAREGEN CO., LTD., priority 2021, published 2025).

Legend:
[1] = test system: human hair follicle dermal papilla cells (HHFDPC); assay: MTT proliferation of dermal papilla cells; assay type: cell-based; conditions: peptide 500 nM, 5 μM, 50 μM, 72 hours, vs untreated control, FIG. 1
Procedure: While culturing human hair follicle dermal papilla cells (HHFDPC), the absorbance was measured after treatment with the peptide of the present invention to confirm whether there was an effect of promoting the proliferation of the HHFDPC dermal papilla cells.
Specifically, HHFDPC (Sciencell, USA) was seeded at 4×10^3 cells/well in a 96-well culture plate, cultured in MSC complete medium (mesenchymal stem cell complete media, Sciencell, USA) for 24 hours, and then the medium was replaced with serum free MSC complete medium and cultured for another 24 hours. Then, the HHFDPC was treated with the peptide of SEQ ID NO: 1 prepared in the Preparation Example at concentrations of 500 nM, 5 μM, and 50 μM, respectively, and cultured at 37° C. for 72 hours. As a positive control, minoxidil was treated at a concentration of 1 μM, and as a negative control, HHFDPC without any treatment was used. Then, 10 μ ? of 5 mg/mL MTT solution was added and cultured in a 37° C. CO2 incubator for 4 hours to stain the cells. After removing the medium, the cells were treated with 100 μl of DMSO and shaken for 10 minutes, and the number of HHFDPC cells was confirmed by measuring absorbance at a wavelength of 540 nm using a spectrophotometer.

[2] = test system: p-AKT; assay: Western blotting of phosphorylated AKT in HHFDPC; assay type: cell-based, human; conditions: peptide 500 nM, 5 μM, 50 μM, 24 hours, vs untreated control, FIG. 2
Procedure: (§1) First, phosphorylated forms of AKT and ERK, which act as signaling molecules related to the proliferation of HHFDPC, were confirmed through Western blotting. Specifically, HHFDPC as in [Experiment Example 1-1] above was seeded at 4×10^5 cells/well in a 6-well culture plate, cultured in MSC complete medium (mesenchymal stem cell complete media) for 24 hours, and then the medium was replaced with serum free MSC complete medium and cultured for another 24 hours. Then, the HHFDPC was treated with the peptide of SEQ ID NO: 1 prepared in the Preparation Example at concentrations of 500 nM, 5 μM, and 50 μM, respectively, and cultured at 37° C. for 24 hours. As a positive control, minoxidil was treated at a concentration of 1 μM, and as a negative control, HHFDPC without any treatment was used. Then, Western blotting was performed to detect phosphorylated AKT and phosphorylated ERK. After washing with PBS, the cells were treated with 100 μ ? of lysis buffer to destroy cells, thereby obtaining cell lysate. After electrophoresis using a 10% SDS-PAGE gel, it was transferred to a PVDF membrane and blocked using 5% skim milk at room temperature for 30 minutes. […] After washing again with 0.1% PBS-T (0.1% Tween-20 in PBS) three times for 15 minutes each, p-AKT and p-ERK were detected by treatment with ECL solution (GE Healthcare, USA).

[3] = test system: p-ERK; assay: Western blotting of phosphorylated ERK in HHFDPC; assay type: cell-based, human; conditions: peptide 500 nM, 5 μM, 50 μM, 24 hours, vs untreated control, FIG. 2
Procedure: as §1

[4] = test system: β-catenin; assay: Western blotting of β-catenin moved to the nucleus in HHFDPC; assay type: cell-based, human; conditions: HHFDPC nuclear protein, peptide 500 nM, 5 μM, 50 μM, 24 hours, vs untreated control, FIG. 3
Procedure: In addition, in addition to p-AKT and p-ERK, in order to confirm the activation of β-catenin, which is known to affect cell proliferation and differentiation, whether β-catenin moved into the nucleus was confirmed through Western blotting. Specifically, the HHFDPC as in [Experiment Example 1-1] was seeded in a 6-well culture plate at an amount of 4×10^5 cells/well, cultured in MSC complete medium (mesenchymal stem cell complete media) for 24 hours. Next, the medium was replaced with serum free MSC complete medium and cultured again for 24 hours. Then, the HHFDPC was treated with the peptide of SEQ ID NO: 1 prepared in the Preparation Example at concentrations of 500 nM, 5 μM, and 50 μM, respectively, and cultured at 37° C. for 24 hours. As a positive control, minoxidil was treated at a concentration of 1 μM, and as a negative control, HHFDPC without any treatment was used. After washing with PBS, proteins in the nucleus were isolated using a nuclear protein extraction kit (Thermo scientific, USA). After electrophoresis using a 10% SDS-PAGE gel, it was transferred to a PVDF membrane and blocked using 5% skim milk at room temperature for 30 minutes. […] After washing again with 0.1% PBS-T (0.1% Tween-20 in PBS) three times for 15 minutes each, β-catenin was detected by treatment with ECL solution (GE Healthcare, USA).

[5] = test system: LEF-1; assay: RT-PCR of LEF-1 expression in HHFDPC; assay type: cell-based, human; conditions: peptide 500 nM, 5 μM, 50 μM, 24 hours, vs untreated control, FIG. 4
Procedure: (§2) Furthermore, in order to determine whether the β-catenin moves to the nucleus and is activated to affect proliferation and differentiation, whether the expression of LEF-1, c-Myc and cyclin D1 (cyclin D1), which act as downstream factors, increases with β-catenin activation was confirmed through RT-PCR. Specifically, in the same manner as the previous Western blotting experiment, HHFDPC cells were cultured, treated with the peptides of the Preparation Example of the present invention at concentrations of 500 nM, 5 μM, and 50 μM, respectively, and cultured at 37° C. for 24 hours. After washing the cells with PBS, RNA was isolated by treating them with 300 μ ? of easy blue (intron, Korea). Then, cDNA was synthesized using a cDNA synthesis kit (enzynomics, Korea) by quantifying it with nano drop, and PCR was performed using primers for LEF-1, c-Myc and cyclin D1 (base sequences of the primer are listed in Table 2 below) and PCR premix (enzynomics, Korea). Electrophoresis was performed on a 1.5% agarose gel, and then the mRNA of LEF-1, c-Myc, c-Myc and cyclin D1 was detected using a band analysis system (Bio-Rad gel image system).

[6] = test system: c-Myc; assay: RT-PCR of c-Myc expression in HHFDPC; assay type: cell-based, human; conditions: peptide 500 nM, 5 μM, 50 μM, 24 hours, vs untreated control, FIG. 4
Procedure: as §2

[7] = test system: cyclin D1; assay: RT-PCR of cyclin D1 expression in HHFDPC; assay type: cell-based, human; conditions: peptide 500 nM, 5 μM, 50 μM, 24 hours, vs untreated control, FIG. 4
Procedure: as §2

[8] = test system: DKK-1 protein; assay: Western blotting of DKK-1 protein in DHT-treated HHFDPC; assay type: cell-based, human; conditions: HHFDPC with DHT 100 nM, peptide 500 nM, 5 μM, 50 μM, 24 hours, vs DHT-only negative control, FIG. 5
Procedure: DKK-1 protein (dickkopf-related protein 1) is a hair loss-related protein known to be highly expressed in individuals with hair loss, especially male pattern hair loss, and its expression is known to be promoted by hormones such as DHT (Dihydrotestosterone). Accordingly, the expression of DKK-1 protein was induced by treating HHFDPC cells with DHT together with the peptide according to the Preparation Example of the present invention, and then the expression level of DKK-1 was measured through Western blotting to determine whether there was an effect of suppressing the expression of DKK-1 protein.
Specifically, HHFDPC as in [Experiment Example 1-1] was seeded in a 6-well culture plate at 4×10^5 cells/well and then cultured in MSC complete medium (mesenchymal stem cell complete media) for 24 hours. Next, the medium was replaced with serum free MSC complete medium and cultured again for 24 hours. In addition, the HHFDPC was treated with the peptide of SEQ ID NO: 1 prepared in the Preparation Example at concentrations of 500 nM, 5 μM, and 50 μM, respectively, and at this time, DHT, an expression inducer of DKK-1 protein, was simultaneously treated at a concentration of 100 nM and then cultured at 37° C. for 24 hours. […] After washing again with 0.1% PBS-T (0.1% Tween-20 in PBS) three times for 15 minutes each, DKK-1 protein was detected by treatment with ECL solution (GE Healthcare, USA).

[9] = test system: Ha3-II; assay: RT-PCR of Ha3-II expression in HHORSC; assay type: cell-based, human; conditions: peptide 500 nM, 5 μM, 50 μM, 72 hours, vs untreated control, FIG. 6
Procedure: (§3) Specifically, HHORSC (human hair outer root sheath cell, Sciencell, USA) was seeded in a 6-well culture plate at 4×10^5 cells/well and then cultured in MSC complete medium (mesenchymal stem cell complete media) for 24 hours. Next, the medium was replaced with serum free MSC complete medium and cultured again for 24 hours. Then, the HHORSC was treated with the peptide of SEQ ID NO: 1 prepared in the Preparation Example at concentrations of 500 nM, 5 μM, and 50 μM, respectively, and cultured at 37° C. for 72 hours. As a positive control, EGF was treated at a concentration of 50 nM, and as a negative control, HHORSC without any treatment was used. After washing with PBS, RNA was isolated by treating with 300 μ ? of easy blue (intron, Korea). Then, cDNA was synthesized using a cDNA synthesis kit (enzynomics, Korea) by quantification using nano drop, and PCR was performed using primers for Ha3-II, Keratin 14, and Keratin 19 (base sequences of primer are listed in Table 3 below) and PCR premix (enzynomics, Korea). Electrophoresis was performed on a 1.5% agarose gel, and the mRNAs of Ha3-II, Keratin 14, and Keratin 19 were detected using a band analysis system (Bio-Rad gel image system).

[10] = test system: Keratin 14; assay: RT-PCR of Keratin 14 expression in HHORSC; assay type: cell-based, human; conditions: peptide 500 nM, 5 μM, 50 μM, 72 hours, vs untreated control, FIG. 6
Procedure: as §3

[11] = test system: Keratin 19; assay: RT-PCR of Keratin 19 expression in HHORSC; assay type: cell-based, human; conditions: peptide 500 nM, 5 μM, 50 μM, 72 hours, vs untreated control, FIG. 6
Procedure: as §3

[12] = test system: MSX2; assay: RT-PCR of MSX2 expression in HHGMC; assay type: cell-based, human; conditions: peptide 500 nM, 5 μM, 50 μM, 72 hours, vs untreated control, FIG. 7
Procedure: Specifically, HHGMC (human hair germinal matrix cell, Sciencell, USA) was seeded in a 6-well culture plate at 4×10^5 cells/well and then cultured in MSC complete medium (mesenchymal stem cell complete media) for 24 hours. Next, the medium was replaced with serum free MSC complete medium and cultured again for 24 hours. Then, the HHGMC was treated with the peptide of SEQ ID NO: 1 prepared in the Preparation Example at concentrations of 500 nM, 5 μM, and 50 μM, respectively, and cultured at 37° C. for 72 hours. As a positive control, EGF was treated at a concentration of 50 nM, and as a negative control, HHGMC without any treatment was used. After washing with PBS, RNA was isolated by treating with 300 μ ? of easy blue (intron, Korea). Next, cDNA was synthesized using a cDNA synthesis kit (enzynomics, Korea) by quantification using nano drop, and PCR was performed using primers for MSX2 (base sequences of primer are listed in Table 4 below) and PCR premix (enzynomics, Korea). Electrophoresis was performed on a 1.5% agarose gel, and MSX2 mRNA was detected using a band analysis system (Bio-Rad gel image system).

Sequence: QHNQIRYFEE [peptide of the present invention]
- proliferation of HHFDPC (absorbance at 540 nm, MTT) [1]: proliferation of HHFDPC was promoted depending on the concentration of the treated peptide
- phosphorylated AKT (p-AKT) [2]: phosphorylation was found to be increased
- phosphorylated ERK (p-ERK) [3]: phosphorylation was found to be increased
- β-catenin moved to the nucleus [4]: migration due to activation of β-catenin increased
- LEF-1 mRNA [5]: the amount of mRNA increased further
- c-Myc mRNA [6]: the amount of mRNA increased further
- cyclin D1 mRNA [7]: the amount of mRNA increased further
- amount of DKK-1 protein [8]: the amount of DKK-1 protein was found to be reduced
- Ha3-II mRNA [9]: the amount of mRNA increased further
- Keratin 14 mRNA [10]: the amount of mRNA increased further
- Keratin 19 mRNA [11]: the amount of mRNA increased further
- MSX2 mRNA [12]: the amount of mRNA increased further
